# Assay results published in patent US6642201B1, “Use of a dipeptide for stimulating repair processes” (priority 1998, dated 2003).
# Marks after values point to notes of the source that are not given here. Where a SMILES comes first, the peptide text is derived from it.
# Legend:
# white outbred male mice = test: Acute toxicity according to Kerber, single intramuscular administration; type: in vivo
# Protocol: The study of the general toxic activity of dipeptide L-Lys-L-Glu was conducted in compliance with “The rules of pre-clinical estimation of safety of pharmacological Substances (GLP)”—
# The purpose of the study consisted of the identification of tolerable toxic doses of the drug, estimation of stage and character of pathological alterations in various organs and systems of the organism and determination of correlation between toxic effect related to dose and duration of drug application.
# The estimation of acute toxicity of dipeptide L-Lys-L-Glu was conducted according to Kerber. The study was carried out on 66 white outbred male mice with body weight 20-23 g, kept under standard regimen and fed with standard chow in the vivarium. The animals were divided at random into 6 equal groups of 11 mice each. The animals were exposed to single administration of the drug intramuscularly, 0.25 ml in doses 1 mg/kg, 2 mg/kg, 3 mg/kg, 4 mg/kg, 5 mg/kg, several thousand times exceeding therapeutic dose recommended for clinical trial. Control animals were administered sodium chloride solution in the same amount.
# [1] = system: purulent incised crushed wounds of the femural soft tissues; test: Healing of purulent incised crushed wounds of the soft tissues; type: in vivo, shinshilla rabbits; design: key to Fibroblasts / Histiocytes / Leukocyles / Macrophases / Necrosis: 1 point - absent; 2 points - single (traces); 3 points - few; 4 points - diffuse (moderately); 5 points - many-,; 6 points - very many
# Text: (§1) The efficacy of L-Lys-L-Glu dipeptide was estimated on the model of purulent incised crushed wounds of the femural soft tissues in shinshilla rabbits of both sexes with body weight 2-3 kg. Therefore, the rabbits underwent shaving in the area of femural soft tissues with subsequent incision 5 cm long and 2 sm deep. Soft tissues (muscles, subcutaneous fat) were crushed with Kocher 's forcepts and infected with the pathogenic mixture Staphylococcus aureus, strain 186. Afterwards, the wound was sutured. In 72 hours the sutures were lifted; and the wound was treated with 3% solution of hydrogen peroxide.
# (§2) The animals of experimental group were injected intramuscularly every day for five days with dipeptide L-Lys-L-Glu in a single dose 1 μkg per injection. Control rabbits were injected with sodium chloride solution according to the same scheme. In the process of treatment the wounds were treated with antiseptic remedies for external use.
# (§3) The estimation of L-Lys-L-Glu dipeptide efficacy in the dynamics of the inflammatory process regression was based on the terms of crust rejection and wound clearance from the pyo-necrotic mass, and appearance of the granular tissue in the wound and beginning of edge epithelization. […] The activity of tissue enzymes was also estimated (5,6,7).
# [2] = system: sluggish-granulating wounds and phlegmon of the maxillofacial zone; test: Clinical complex treatment of pyo-inflammatory diseases of different localization; type: in vivo; conditions: patients, 1 μkg i.m. every day during ten days
# Protocol: 1 μkg of the preparation was injected intramuscularly, every day during ten days. Effectiveness of the treatment was evaluated in dynamics according to the changes in activity of wound enzymes and time of healing.
# [3] = system: sluggish-granulating wounds after surgical treatment for cancer; test: Clinical complex treatment of cancer patients with post-operative complications; type: in vivo
# Protocol: In the pre-operation period, the patients underwent a radical-scheme, radiation therapy employing large fields of complex configuration on the linear electron accelerator (its power is 4,3 Mev) and gamma-therapy device “Rokus-M” in the brake mode. In particular cases, one of the components of the combined treatment was chemotherapy.
# Beginning from the third day after the operation, 1 μkg of L-Lys-L-Glu dipeptide was injected intramuscularly daily during 10 days.
# [4] = system: purulent incised crushed wounds of the femural soft tissues; test: Healing of purulent incised crushed wounds of the soft tissues; type: in vivo, shinshilla rabbits; design: key: 1 point - absent; 2 points - single (traces); 3 points - few; 4 points - diffuse (moderately); 5 points - many-,; 6 points - very many; conditions: rabbits, 1 μkg i.m. daily 5 days
# Text: as §1, §2, §3
# [5] = rabbits, 1 μkg i.m. daily 5 days
# [6] = rabbits, 1 μkg i.m. daily 5 days, day 6
# [7] = rabbits, 1 μkg i.m. daily 5 days, day 14
# [8] = rabbits, 1 μkg i.m. daily 5 days, day 21
# [9] = rabbits, 1 μkg i.m. daily 5 days, day 29
# [10] = rabbits, 1 μkg i.m. daily 5 days, day 40
smiles,measurement,setting,value
"NCCCC[C@H](N)C(=O)N[C@@H](CCC(=O)O)C(=O)O [L-Lys-L-Glu dipeptide, L-lysil-L-glutamic acid] (H-Lys-Glu-OH)",toxic effects,white outbred male mice; doses several thousand times exceeding the therapeutic,does not induce any toxic effects
same,"changes in general state, behavior, locomotor activity, integument, physiological discharges","white outbred male mice; mice, single i.m. 1-5 mg/kg, 72 hours and 14 days","No changes in the general state, behavior, locomotor activity, hairy or skin integument or physiological discharges"
same,animal deaths,"white outbred male mice; mice, single i.m. 1-5 mg/kg, in 72 hours and in 14 days",none of the animals in either of the groups died
same,activity of acid phosphatase in histiocytes,[1]; phase of proliferation (14-28 days),high activity of acid phosphatase in histiocytes
same,Terms of complete clearance of the wound surface from necrotizing tissues,[1]; [5],14.2 + −1.3* days
same,Terms of the wound epithelization,[1]; [5],24.9 + −1.9* days
same,Terms of tile onset of necrotizing tissue rejection form the wound surface,[1]; [5],8.3 + −1.1*
same,Fibroblasts,[1]; [6],4*
same,Histiocytes,[1]; [6],4
same,Leukocyles,[1]; [6],5
same,Macrophases,[1]; [6],3
same,Necrosis,[1]; [6],3*
same,Fibroblasts,[1]; [7],5*
same,Histiocytes,[1]; [7],5*
same,Leukocyles,[1]; [7],5
same,Macrophases,[1]; [7],3
same,Necrosis,[1]; [7],2*
same,Fibroblasts,[1]; [8],5
same,Histiocytes,[1]; [8],5
same,Leukocyles,[1]; [8],4
same,Macrophases,[1]; [8],2
same,Necrosis,[1]; [8],2*
same,Fibroblasts,[1]; [9],5
same,Histiocytes,[1]; [9],4
same,Leukocyles,[1]; [9],4*
same,Macrophases,[1]; [9],2
same,Necrosis,[1]; [9],1
same,Fibroblasts,[1]; [10],6*
same,Histiocytes,[1]; [10],6*
same,Leukocyles,[1]; [10],2
same,Macrophases,[1]; [10],2*
same,Necrosis,[1]; [10],1
same,activity of alkaline phosphatase in foci of leukocytory infiltration and vascular endothelium,"[1]; rabbits, wound tissue",high activity of alkaline phophotase
same,activity of wound enzymes,[2],increased the activity of wound ferments in the first phase of the wound process
same,clearance of the wounds from necrotic tissues,[2],accelerate clearance of the wounds from necrotic tissues
same,treatment period,[2],reduction of the treatment period
same,edema and pain in the wound area,[3]; 1 μkg i.m. daily during 10 days from third day after operation,helped to reduce edema and pain in the wound area
same,time of treatment,[3]; complex treatment,reduces the time of their treatment
same,Alcaline phosphotase in leukocytes,[4]; day 6,6*
same,Alcaline phosphotase in vessels,[4]; day 6,6*
same,Acid phosphotase in histiocytes,[4]; day 14,6*
same,Alcaline phosphotase in leukocytes,[4]; day 14,6*
same,Alcaline phosphotase in leukocytes,[4]; day 28,6
same,Alcaline phosphotase in vessels,[4]; day 28,4
same,Alcaline phosphotase in vessels,[4]; day 40,4*
